Data reported in patent publication US20070142384A1, “Compounds, pharmaceutical compositions and methods for use in treating metabolic disorders” (AMGEN INC., priority 2004, published 2007).

Molecular target: T1, human GPR40 (Homo sapiens, UniProt O14842)
T1 construct: expressed in transfected cells; host or cells: CHO cells, transient co-transfection with Aequorin expression vector (Euroscreen)
Assay: Cell-based aequorin assay using human GPR40
Conditions: activation of human GPR40; CHO cells transfected with GPR40 and Aequorin expression vectors; aequorin luminescence, area-under-curve 2-20 seconds; 0.01% BSA or 0.625% HSA; read-out: Relative EC50
Experimental: A cell-based aequorin assay may be employed to characterize the modulatory activity of compounds on the GPR40 signaling pathway. In an exemplary assay, CHO cells are transfected in a 15 cm plated containing 14 million cells with 5 μg of GPR40 expression vector and 5 μg of Aequorin expression vector (Euroscreen) using Lipofectamine 2000 (Invitrogen). […] Trypsinization is halted with 28 mL of Hanks Buffered Salt Solution containing 20 mM Hepes (H/HBSS) and 0.01% fatty acid-free bovine serum albumin (BSA) or 0.625% fatty acid-free human serum albumin (HSA). […] Cells are gently mixed every 15 minutes. Compounds are dissolved in dimethyl sulfoxide for preparation of 10 mM stock solutions. Compounds are diluted in H/HBSS containing either 0.01% BSA or 0.625% HSA. Serial dilutions of the test compounds are prepared to determine dose response.
Aequorin luminescence measurements are made using an EG&G Berthold 96-well luminometer and the response is measured over a 20 second interval after cells and compounds were mixed. […] The EC50 (effective concentration to reach 50% maximal response) is determined from the dose response plot. […]

T1 sequence (O14842 whole entry): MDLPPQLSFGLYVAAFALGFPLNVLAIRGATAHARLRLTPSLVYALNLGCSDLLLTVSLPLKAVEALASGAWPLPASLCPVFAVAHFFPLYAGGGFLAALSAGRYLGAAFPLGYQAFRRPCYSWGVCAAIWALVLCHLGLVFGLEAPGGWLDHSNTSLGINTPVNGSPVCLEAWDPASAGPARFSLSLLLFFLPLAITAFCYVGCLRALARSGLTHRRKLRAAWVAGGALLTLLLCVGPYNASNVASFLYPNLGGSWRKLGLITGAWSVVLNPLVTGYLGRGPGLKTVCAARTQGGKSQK

O=C(O)CC(c1ccc(OCc2cccc(-c3ccc(C(F)(F)F)cc3)c2)cc1)C1CC1 (stereo not shown) [Compound 91]
EC50: 1 to 10 µM
